Assay results: patent US20260022142A1, “MACROCYCLIC IMMUNOMODULATORS” (Bristol-Myers Squibb Company, priority 2022, published 2026)
Bridge positions count the residues as written; N and C are the ends. Square brackets hold non-standard residues; d marks the D form. Peptide text beside a SMILES is read from it. * marks the point of attachment. Phe(4-CH2CH2COOH) = N[C@@H](Cc1ccc(CCC(=O)O)cc1)C(=O)O; Bip = N[C@@H](Cc1ccc(-c2ccccc2)cc1)C(=O)O; Phe(3-Me) = Cc1cccc(C[C@H](N)C(=O)O)c1; Cha = N[C@@H](CC1CCCCC1)C(=O)O; Cit = NC(=O)NCCC[C@H](N)C(=O)O; Carboxymethyl = O=C(O)C*; Orn = NCCC[C@H](N)C(=O)O; Aun = NCCCCCCCCCCC(=O)O; Dab = NCC[C@H](N)C(=O)O; Dap = NC[C@H](N)C(=O)O

Target: T1, PD-1/PD-L1 interaction (PE-labeled human PD-L1-Ig binding to Jurkat cell line over-expressing human PD-1) (Homo sapiens, UniProt Q15116)
T1 construct: expressed in transfected cells; host or cells: Jurkat
Experiment: Jurkat-PD-1 Cell Binding High-Content Screening Assay (CBA)
Format: cell-based
Conditions: Jurkat cell line over-expressing human PD-1; PE-labeled PD-L1-Ig 20 nM final; read-out: Jurkat hPD1-PDL1 IC50
In short: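 Jurkat-hPD-1 cells, DMEM/10% FCS; cpd 2 h 37° C; PE-PD-L1-Ig 20 nM final, 1 h; 4% PFA fix + Hoechst 33342, 3× dPBS wash; high-content imaging read-out.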

T1 sequence (Q15116 25-288): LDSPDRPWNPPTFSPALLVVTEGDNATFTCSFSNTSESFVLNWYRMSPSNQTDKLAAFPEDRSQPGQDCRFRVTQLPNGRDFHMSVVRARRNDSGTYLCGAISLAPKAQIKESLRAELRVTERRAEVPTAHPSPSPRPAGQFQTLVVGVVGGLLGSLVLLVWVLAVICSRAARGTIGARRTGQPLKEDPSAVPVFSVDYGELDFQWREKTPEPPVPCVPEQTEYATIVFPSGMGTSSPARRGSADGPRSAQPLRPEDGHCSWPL

Row | SMILES | IC50 [nM]
1 | Cc1cccc(C[C@@H]2NC(=O)[C@H](CC(=O)O)NC(=O)[C@H](Cc3ccc(CCC(=O)O)cc3)NC(=O)[C@H](CCCNC(=N)N)NC(=O)CSC[C@@H](C(=O)N[C@@H](CCN)C(=O)N[C@@H](CO)C(=O)NCCCCCCCCCCC(=O)O)NC(=O)[C@H](CCC(=O)O)NC(=O)[C@H](C(C)C)NC(=O)[C@H](CC3CCCCC3)NC(=O)[C@H](CCN)NC(=O)[C@@H](CC(C)C)NC(=O)[C@H](CCN)NC(=O)[C@H](CCCNC(N)=O)NC(=O)[C@H](Cc3ccc(-c4ccccc4)cc3)NC(=O)[C@H](C(C)C)NC2=O)c1 [Compound 2813] ({CH2CO}-R[Phe(4-CH2CH2COOH)]D[Phe(3-Me)]V[Bip][Cit][Dab][dL][Dab][Cha]VEC[Dab]S[Aun]-OH; thioether N-14) | 181
2 | Cc1cccc(C[C@@H]2NC(=O)[C@H](CC(=O)O)NC(=O)[C@H](Cc3ccc(CCC(=O)O)cc3)NC(=O)[C@H](CCCNC(=N)N)NC(=O)CSC[C@@H](C(=O)N[C@@H](CCCN)C(=O)N[C@@H](CO)C(=O)NCCCCCCCCCCC(=O)O)NC(=O)[C@H](CCC(=O)O)NC(=O)[C@H](C(C)C)NC(=O)[C@H](CC3CCCCC3)NC(=O)[C@H](CCN)NC(=O)[C@@H](CC(C)C)NC(=O)[C@H](CCN)NC(=O)[C@H](CCCNC(N)=O)NC(=O)[C@H](Cc3ccc(-c4ccccc4)cc3)NC(=O)[C@H](C(C)C)NC2=O)c1 [Compound 2814] ({CH2CO}-R[Phe(4-CH2CH2COOH)]D[Phe(3-Me)]V[Bip][Cit][Dab][dL][Dab][Cha]VEC[Orn]S[Aun]-OH; thioether N-14) | 23.6
3 | CC(C)C[C@H]1NC(=O)[C@H](CCN)NC(=O)[C@H](CCCNC(N)=O)NC(=O)[C@H](Cc2ccc(-c3ccccc3)cc2)NC(=O)[C@H](C(C)C)NC(=O)[C@H](Cc2c[nH]c3ccccc23)NC(=O)[C@H](CC(=O)O)NC(=O)[C@H](Cc2ccc(OCC(=O)O)cc2)NC(=O)[C@H](CCCNC(=N)N)NC(=O)CSC[C@@H](C(=O)N[C@@H](CCCN)C(=O)NCCCCCCCCCCC(=O)O)NC(=O)[C@@H](CCC(N)=O)NC(=O)[C@H](C(C)C)NC(=O)[C@H](CC2CCCCC2)NC(=O)[C@H](CCN)NC1=O [Compound 2816] ({CH2CO}-RY(Carboxymethyl)DWV[Bip][Cit][Dab][dL][Dab][Cha]V[dQ]C[Orn][Aun]-OH; thioether N-14) | 74.9

The remaining lines, values ahead:

Row | IC50 [nM] | SMILES
4 | 34.1 | Cc1cccc(C[C@@H]2NC(=O)[C@H](CC(=O)O)NC(=O)[C@H](Cc3ccc(CCC(=O)O)cc3)NC(=O)[C@H](CN)NC(=O)CSC[C@@H](C(=O)N[C@@H](CCN)C(=O)N[C@@H](CO)C(=O)NCCCCCCCCCCC(=O)O)NC(=O)[C@H]([C@@H](C)O)NC(=O)[C@H](C(C)C)NC(=O)[C@H](CC3CCCCC3)NC(=O)[C@H](CCN)NC(=O)[C@@H](CC(C)C)NC(=O)[C@H](CCCN)NC(=O)[C@H](CCCNC(N)=O)NC(=O)[C@H](Cc3ccc(-c4ccccc4)cc3)NC(=O)[C@H](C(C)C)NC2=O)c1 [Compound 2811] ({CH2CO}-[Dap][Phe(4-CH2CH2COOH)]D[Phe(3-Me)]V[Bip][Cit][Orn][dL][Dab][Cha]VTC[Dab]S[Aun]-OH; thioether N-14)
5 | 24 | Cc1cccc(C[C@@H]2NC(=O)[C@H](CC(=O)O)NC(=O)[C@H](Cc3ccc(CCC(=O)O)cc3)NC(=O)[C@H](CN)NC(=O)CSC[C@@H](C(=O)N[C@@H](CCCN)C(=O)N[C@@H](CO)C(=O)NCCCCCCCCCCC(=O)O)NC(=O)[C@H]([C@@H](C)O)NC(=O)[C@H](C(C)C)NC(=O)[C@H](CC3CCCCC3)NC(=O)[C@H](CCN)NC(=O)[C@@H](CC(C)C)NC(=O)[C@H](CCCN)NC(=O)[C@H](CCCNC(N)=O)NC(=O)[C@H](Cc3ccc(-c4ccccc4)cc3)NC(=O)[C@H](C(C)C)NC2=O)c1 [Compound 2812] ({CH2CO}-[Dap][Phe(4-CH2CH2COOH)]D[Phe(3-Me)]V[Bip][Cit][Orn][dL][Dab][Cha]VTC[Orn]S[Aun]-OH; thioether N-14)
